What all share (assay type): in vivo, Cryptotis parva
One data set concerns NK1 receptor. In words: Histological analysis of NK1 receptor immunotoxic lesions with SSP-saporin. The protocol: (§1) Immunohistochemistry was performed by blocking free-floating sections with 10% normal horse serum (NHS) and 3% hydrogen peroxide in PB with 0.3% Triton X-100 (TX) for 30 min After rinsing three times in PB, tissue was put in either: (1) rat anti-Substance P monoclonal antibody (Chemicon, 1:400); (2) sheep anti-Fos polyclonal (Chemicon, 1:600); or (3) rabbit anti-NK1 receptor polyclonal (Santa Cruz, 1:500), with 5% NHS and 0.3% TX, and incubated overnight at room temperature with gentle shaking. After rinsing three times in PB, the tissue was placed in biotinylated donkey anti-rat, anti-sheep, or anti-rabbit (respectively) IgG secondary antibody (Jackson Immuno, dilution 1:600). The secondary antibody was diluted in the same diluent described for the primary antibody, and the tissue incubated at room temperature with shaking for 75 min. After rinsing three times in PB, tissue was incubated for 60 min in horse radish peroxidase-conjugated avidin-biotin complex (Vector Labs Vectastain kit, diluted 1:2) in PB. Tissue was then rinsed twice in PB, then once in imidazole-acetate buffer (0.1 M, pH7.4), then reacted for 6 min in 0.0006% hydrogen peroxide with 2% nickel ammonium sulfate-enhanced diaminobenzidine (DAB, 0.05% in 0.1 M imidazole-acetate buffer).
To better localize the induction of emesis by GR73632, dose-response curves were generated for shrews pretreated either with the NK1 receptor immunotoxin SSP-saporin or saline and challenged four days later with varying doses of GR73632 (0, 1, 2.5, or 5 mg/kg, i.p., n=8-10 per group). Briefly, thirty shrews were injected i.p. with 1.2 mg/kg SSP-saporin in sterile saline, and thirty-five shrews were injected with sterile saline alone. In addition, two more shrews were injected with 1.2 mg/kg unconjugated saporin (saporin; ATS) and two more with 1.2 mg/kg of saporin conjugated to a nonspecific peptide sequence (Blank-saporin; ATS). […] Each shrew was monitored for 30 min post-injection and vomiting and scratching behaviors quantified. […]

Data set [1] concerns LTC4-induced emesis in the Least Shrew. In words: CysLT1 antagonists against leukotriene LTC4-induced emesis. To be noted: dose-dependent. The protocol:
Emetic parameters were recorded for 30min post emetic injection.

For the next data set, the system named is Least Shrew. In words: Dose response emesis and scratching studies with tachykinin receptor agonists. Conditions: for increase in emesis frequency vs vehicle control: 30 min observation. From the text: The present protocols were based upon preliminary studies as well as published findings in the Least Shrew. Darmani, 2001a; Darmani et al., 69 Pharmacol. Biochem. Behay. 239-49 (2001b). On the test day, the shrews were allowed to acclimate to the test laboratory for at least one hour prior to experimentation. To habituate the animals to the test environment, each shrew was randomly selected and transferred to a 20 cm×18 cm×21 cm clean clear plastic cage and offered four mealworms (Tenebrio sp.) 30 min prior to experimentation. […]
(§2) The data on the frequency of emesis and scratchings were analyzed by the Kruskal-Wallis (KW) nonparametric one-way analysis of variance (ANOVA) and post hoc analysis by Dunn's multiple comparisons test or Mann-Whitney test. A P value of <0.05 was necessary to attain statistical significance. The incidence of emesis (number of shrews vomiting) was analyzed by the Fisher's exact test to determine whether there were differences between groups. When appropriate, pairwise comparisons were also made by this method. Two-way analysis of variance using the Kruskal-Wallis or Fisher's exact tests were initially utilized to respectively analyze the dose-response results of GR73632 on emesis and scratching behaviors, and percentage of shrews vomiting in saporin- and corresponding saline-pretreated control shrews. […] For some emesis data, the two-tailed Mann-Whitney test was used. The SP tissue concentration data were analyzed by a one-way ANOVA followed by Dunnett's t test as post hoc analysis. Fos-IR was quantified by counting immunopositive nuclei within each hemisection containing the region of interest (ROI). The number of nuclei was averaged across sections with the ROI for each animal, and the group mean and standard error obtained.

The next data set concerns Fos. In words: Fos-IR in brain and enteric nervous system after GR73632. To be noted: GR73632 2.5 mg/kg i.p. The protocol:
Shrews were given four mealworms each and GR73632 (2.5 mg/kg, i.p., or vehicle (saline)) injection. For emesis-related Fos visualization, a shrew was transcardially perfused 60 min to 75 min after vomiting occurred, typically 20 min to 35 min post-injection.
After the appropriate time period as described above, shrews were anesthetized with a lethal dose of pentobarbital ([…]) and perfused transcardially via 25 ga blunted needle connected to a peristaltic pump. The shrew was perfused first with ice cold heparinized saline (0.9% NaC1, 60 sec-90 sec), followed by ice cold 4% paraformaldehyde/5% picric acid in pH7.4, 0.1 M (10 min). Brains were removed and stored in 30% sucrose in 0.1 M phosphate buffer (PB) overnight, then embedded in blocks of 12% gelatin in 30% sucrose/PB. The blocks were postfixed for 3 hr in 2% paraformaldehyde/PB, then rinsed and immersed in 30% sucrose/PB until they sank (usually 1 hr to 2 hr). The brain block was cut on a freezing benchtop microtome (Leica) at 30 μm into five series, and stored in PB with 0.03% sodium azide.
as §1
After reacting, the tissue was rinsed thoroughly in PB and mounted onto gel-subbed slides out of PB. After air-drying, slides were dehydrated through a series of ascending ethanols (50%-75%-90%-100%), then cleared in xylene (Fisher). Cleared slides were coverslipped with DEPEX (Electron Microscopy Sciences).
Photomicrographs of regions of interest were taken at 1600×1200 pixel digital resolution with a SPOT digital camera (Diagnostic Instruments) attached to a Pentium 4 PC running version 4.0 of the SPOT software. The camera was mounted to a Nikon Eclipse E600 microscope. A calibrated scale bar was added and the photos exported to Adobe Photoshop 7, where the Photoshop brush tool was used to mark Fos+nuclei as they were counted. Relevant structures were identified using an atlas produced in lab (Ray & Darmani, 2007). Cell counts for each structure were averaged on a per-section basis and collated in a spreadsheet for statistical analysis.
The data on the frequency of emesis and scratchings were analyzed by the Kruskal-Wallis (KW) nonparametric one-way analysis of variance (ANOVA) and post hoc analysis by Dunn's multiple comparisons test or Mann-Whitney test. A P value of <0.05 was necessary to attain statistical significance. The incidence of emesis (number of shrews vomiting) was analyzed by the Fisher's exact test to determine whether there were differences between groups. When appropriate, pairwise comparisons were also made by this method. […]

For data set [2], the system named is Least Shrew, NK1 receptor-intact or NK1 receptor-ablated. In words: GR73632 emesis and scratching after SSP-saporin ablation of peripheral NK1 receptors. The protocol: To better localize the induction of emesis by GR73632, dose-response curves were generated for shrews pretreated either with the NK1 receptor immunotoxin SSP-saporin or saline and challenged four days later with varying doses of GR73632 (0, 1, 2.5, or 5 mg/kg, i.p., n=8-10 per group). Briefly, thirty shrews were injected i.p. with 1.2 mg/kg SSP-saporin in sterile saline, and thirty-five shrews were injected with sterile saline alone. In addition, two more shrews were injected with 1.2 mg/kg unconjugated saporin (saporin; ATS) and two more with 1.2 mg/kg of saporin conjugated to a nonspecific peptide sequence (Blank-saporin; ATS). Shrews were returned to the animal facility for three days and supplied with unrestricted food and water. Saporin-injected and Blank-saporin-injected shrews were perfused four days post-injection, and brain and gut harvested as described for immunohistochemical staining. The SSP-saporin and saline-injected shrews were divided into different groups on day 4 post-injection, and each group was injected i.p. with varying doses varying doses of 0, 1, 2.5, or 5 mg/kg GR73632 dissolved in saline. Each shrew was monitored for 30 min post-injection and vomiting and scratching behaviors quantified. Three shrews from each group were then perfused 90 min to 120 min post-injection as described previously for Fos immunohistochemistry, and brain and gut harvested. Immunohisto-chemistry (IHC) was performed for SP, NK1 receptor, and Fos as described, to qualitatively examine the extent of immunotoxic lesion in the brain and/or enteric nervous system. IHC for SP and NK1 receptor was done on the saporin- and Blank-saporin-injected shrews to verify the specificity of SSP-saporin and lack of toxicity of unconjugated saporin.
as §2

Regarding “[Sar^9, Met (O2)“]-SP-saporin [SSP-saporin]”, the “NK1 receptor-IR in the gut vs saline-treated controls” value in the data set with NK1 receptor (1.2 mg/kg i.p., four days) is recorded as “clear loss”. The “blood brain barrier penetration” value in the data set on NK1 receptor (peripherally administered, 1.2 mg/kg i.p.) is on record as “does not penetrate the blood brain barrier”.
Consider `COc1cc(C(=O)NS(=O)(=O)c2ccccc2C)ccc1Cc1cn(C)c2ccc(NC(=O)OC3CCCC3)cc12` [zafirlucast], for which the “prevention of LTC4-induced emesis” value in data set [1] is listed as “prevent LTC4-induced emesis completely”.
The same measure, in the same setting: the value for `O=C(Nc1cccc2c(=O)cc(-c3nnn[nH]3)oc12)c1ccc(OCCCCc2ccccc2)cc1` [Pranlucast, 4-Oxo-8-[(4-phenylbutoxy)benzoylamino]-2-(tetrazol-5-yl)-4H-1-benzopyran] was “prevent LTC4-induced emesis completely”.
Take “delta Ava [L-Pro^9, N-MeLeu^10]SP (7-11) [GR73632]”: the “frequency of scratching behavior vs vehicle” value with Least Shrew (2.5 mg/kg i.p.) and with Least Shrew (5 mg/kg i.p.) was “Significant enhancements” in each case. Also, the “percentage of shrews vomiting” value with Least Shrew (2.5 mg/kg i.p.) is listed as 87.5%; in the data set with Least Shrew (5 mg/kg i.p.), 100%; in data set [2] (GR73632 1 mg/kg, NK1 receptor-intact (saline-pretreated) shrews), 44%; in data set [2] (GR73632 1 mg/kg, saporin-pretreated NK1 receptor-ablated shrews), 0%; in data set [2] (GR73632 2.5 mg/kg, NK1 receptor-ablated shrews), 28%; in data set [2] (GR73632 2.5 mg/kg, NK1 receptor-intact shrews), 62.5%. Further, the “percentage of shrews vomiting” value in data set [2] (GR73632 5 mg/kg, NK1 receptor-ablated shrews) is 100%; in data set [2] (GR73632 5 mg/kg, NK1 receptor-intact shrews) it was 100%. Also, the entries for the “increase in emesis frequency vs vehicle control” value in the data set with Least Shrew (2.5 mg/kg i.p.) and in the data set on Least Shrew (5 mg/kg i.p.) were 438% and 575%, respectively. In addition, in the data set with Least Shrew (i.p. agonist injection), the “onset of first emesis after injection” value lay in the range of 3 to 4 min. The “Fos-IR in gastrointestinal enteric nervous system vs saline” value in the data set on Fos is reported as “significant differences”. In addition, in the data set with Fos (N=6), the “shrews in which vomiting was induced” value is “five of six”. Besides, the “Fos-IR nuclei per coronal hemisection, AP” value in the data set on Fos (mean ± standard error) is given as 2.4 ± 1.2. For the same compound, in the data set with Fos (mean ± standard error), the “Fos-IR nuclei per coronal hemisection, DMNX” value amounted to 3.3 ± 1.0. In the data set with Fos (mean ± standard error), the “Fos-IR nuclei per coronal hemisection, NTS” value is given as 8.2 ± 1.1. Besides, the “Fos-IR nuclei per coronal hemisection, PFC” value with Fos (mean ± standard error) is on record as 58.4 ± 14.2. In data set [2] (GR73632 1 mg/kg, normal shrews), the number of vomits result was “about two vomits”. Further, the “bouts of vomiting, ablated vs intact shrews” value in data set [2] (GR73632 5 mg/kg, NK1 ablated shrews) is reported as “significantly less bouts of vomiting”. The number of scratches entry in data set [2] (GR73632 1, 2.5, 5 mg/kg, NK1 receptor-ablated shrews) is recorded as “increased in a significant manner at all tested doses”. Moreover, in data set [2] (NK1 receptor-ablated shrews), the “duration of expulsion of food/liquid” value lay within 15 to 30 s. In data set [2] (NK1 receptor-intact animals), the “duration of emesis (each vomit expulsion)” value was 2 to 4 s.
As to saporin, the “NK1 receptor-IR and SP-IR vs control shrews” value in the data set on NK1 receptor (1.2 mg/kg, four days post-injection) is “not different”.

Values taken from US20110093959A1, “CRYPTOTIS PARVA SCREENING MODEL FOR ANTIEMETIC POTENTIAL” (priority 2008, published 2011).
